Measurements reported in patent US6770597B2, “Benzohydrazide derivatives as herbicides and desiccant compositions containing them” (Ishihara Sangyo Kaisha, Ltd., priority 2002, dated 2004).

Tests used:
Assay type in all cases: in vivo
[1] = tested on: field corn (Zea mays L., var. Dekalb 535, CORN); experiment: Greenhouse herbicide screen, post-emerge application, crop damage rating; conditions: POST emergent, 14 days after application, scale 0-100
Summary of the method: (§1)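 Phytotoxicity read at 14 days on a 0–100 visual scale. Plants were treated either pre-emergence, one day after planting in sandy loam, or post-emergence at about 2–3 leaves, with acetone sprays at 15–1000 g ai/ha.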

[2] = tested on: upland rice (Oryza sp., var.Cocodrie, RICE); experiment: as above; conditions: POST emergent, 14 days after application, scale 0-100
Summary of the method: as §1

[3] = tested on: green foxtail (Setaria viridis, SETVI); experiment: Greenhouse herbicide screen, pre-emerge application, phytotoxicity rating; conditions: PRE emergent, 14 days after application, rating scale 0-100
Summary of the method: as §1

[4] = tested on: johnsongrass (Sorghum halepense, SORHA); experiment: as above; conditions: PRE emergent, 14 days after application, rating scale 0-100
Summary of the method: as §1

[5] = tested on: barnyardgrass (Echinochloa crus-galli, ECHCG); experiment: as above; conditions: PRE emergent, 14 days after application, rating scale 0-100
Summary of the method: as §1

[6] = tested on: large crabgrass (Digitaria sanguinalis, DIGSA); experiment: as above; conditions: PRE emergent, 14 days after application, rating scale 0-100
Summary of the method: as §1

[7] = tested on: cocklebur (Xanthium strumarium, XANST); experiment: as above; conditions: PRE emergent, 14 days after application, rating scale 0-100
Summary of the method: as §1

[8] = tested on: ivyleaf morningglory (Ipomoea hederacea, IPOHE); experiment: as above; conditions: PRE emergent, 14 days after application, rating scale 0-100
Summary of the method: as §1

[9] = tested on: lambsquarters (Chenopodium album, CHEAL); experiment: as above; conditions: PRE emergent, 14 days after application, rating scale 0-100
Summary of the method: as §1

[10] = tested on: velvetleaf (Abutilon theophrasti, ABUTH); experiment: as above; conditions: PRE emergent, 14 days after application, rating scale 0-100
Summary of the method: as §1

[11] = tested on: sicklepod (Cassia obtusifolia, CASOB); experiment: as above; conditions: PRE emergent, 14 days after application, rating scale 0-100
Summary of the method: as §1

[12] = tested on: redroot pigweed (Amaranthus retrofiexus, AMARE); experiment: as above; conditions: PRE emergent, 14 days after application, rating scale 0-100
Summary of the method: as §1

[13] = tested on: common ragweed (Ambrosia artemisiifolia L., AMBEL); experiment: as above; conditions: PRE emergent, 14 days after application, rating scale 0-100
Summary of the method: as §1

[14] = tested on: field corn (Zea mays L., var. Dekalb 535, CORN); experiment: Greenhouse herbicide screen, pre-emerge application, crop damage rating; conditions: PRE emergent, 14 days after application, rating scale 0-100
Summary of the method: as §1

[15] = tested on: upland rice (Oryza sp., var.Cocodrie, RICE); experiment: as above; conditions: PRE emergent, 14 days after application, rating scale 0-100
Summary of the method: as §1

[16] = tested on: green foxtail (Setaria viridis, SETVI); experiment: Greenhouse herbicide screen, post-emerge application, phytotoxicity rating; conditions: POST emergent, 14 days after application, scale 0-100
Summary of the method: as §1

[17] = tested on: johnsongrass (Sorghum halepense, SORHA); experiment: as above; conditions: POST emergent, 14 days after application, scale 0-100
Summary of the method: as §1

[18] = tested on: barnyardgrass (Echinochloa crus-galli, ECHCG); experiment: as above; conditions: POST emergent, 14 days after application, scale 0-100
Summary of the method: as §1

[19] = tested on: large crabgrass (Digitaria sanguinalis, DIGSA); experiment: as above; conditions: POST emergent, 14 days after application, scale 0-100
Summary of the method: as §1

[20] = tested on: cocklebur (Xanthium strumarium, XANST); experiment: as above; conditions: POST emergent, 14 days after application, scale 0-100
Summary of the method: as §1

[21] = tested on: ivyleaf morningglory (Ipomoea hederacea, IPOHE); experiment: as above; conditions: POST emergent, 14 days after application, scale 0-100
Summary of the method: as §1

[22] = tested on: lambsquarters (Chenopodium album, CHEAL); experiment: as above; conditions: POST emergent, 14 days after application, scale 0-100
Summary of the method: as §1

[23] = tested on: velvetleaf (Abutilon theophrasti, ABUTH); experiment: as above; conditions: POST emergent, 14 days after application, scale 0-100
Summary of the method: as §1

[24] = tested on: sicklepod (Cassia obtusifolia, CASOB); experiment: as above; conditions: POST emergent, 14 days after application, scale 0-100
Summary of the method: as §1

[25] = tested on: redroot pigweed (Amaranthus retrofiexus, AMARE); experiment: as above; conditions: POST emergent, 14 days after application
Summary of the method: as §1

[26] = tested on: common ragweed (Ambrosia artemisiifolia L., AMBEL); experiment: as above; conditions: POST emergent, 14 days after application, scale 0-100
Summary of the method: as §1

[27] = 63 g ai/ha, scale 0-100 (0 no damage, 100 complete death)

## CN1CCN(NC(=O)c2cc(-n3c(=O)cc(C(F)(F)F)n(C)c3=S)c(F)cc2Cl)CC1 [Compound 1-14]
[1]; 63 g ai/ha
  crop damage rating CORN: 0
[1]; 250 g ai/ha
  crop damage rating CORN: 50
[2]; 63 g ai/ha
  crop damage rating RICE: 0
[2]; 250 g ai/ha
  crop damage rating RICE: 0
[3]; 63 g ai/ha
  phytotoxicity rating SETVI: 0
[3]; 250 g ai/ha
  phytotoxicity rating SETVI: 55
[4]; 63 g ai/ha
  phytotoxicity rating SORHA: 70
[4]; 250 g ai/ha
  phytotoxicity rating SORHA: 95
[5]; 63 g ai/ha
  phytotoxicity rating ECHCG: 0
[5]; 250 g ai/ha
  phytotoxicity rating ECHCG: 70
[6]; 63 g ai/ha
  phytotoxicity rating DIGSA: 55
[6]; 250 g ai/ha
  phytotoxicity rating DIGSA: 70
[7]; 63 g ai/ha
  phytotoxicity rating XANST: 40
[7]; 250 g ai/ha
  phytotoxicity rating XANST: 65
[8]; 63 g ai/ha
  phytotoxicity rating IPOHE: 10
[8]; 250 g ai/ha
  phytotoxicity rating IPOHE: 65
[9]; 63 g ai/ha
  phytotoxicity rating CHEAL: 100
[9]; 250 g ai/ha
  phytotoxicity rating CHEAL: 100
[10]; 63 g ai/ha
  phytotoxicity rating ABUTH: 30
[10]; 250 g ai/ha
  phytotoxicity rating ABUTH: 90
[11]; 63 g ai/ha
  phytotoxicity rating CASOB: 0
[11]; 250 g ai/ha
  phytotoxicity rating CASOB: 50
[12]; 63 g ai/ha
  phytotoxicity rating AMARE: 95
[12]; 250 g ai/ha
  phytotoxicity rating AMARE: 100
[13]; 63 g ai/ha
  phytotoxicity rating AMBEL: 35
[13]; 250 g ai/ha
  phytotoxicity rating AMBEL: 70
[14]; 63 g ai/ha
  crop damage rating CORN: 0
[14]; 250 g ai/ha
  crop damage rating CORN: 0
[15]; 63 g ai/ha
  crop damage rating RICE: 0
[15]; 250 g ai/ha
  crop damage rating RICE: 50
[16]; 63 g ai/ha
  phytotoxicity rating SETVI: 0
[16]; 250 g ai/ha
  phytotoxicity rating SETVI: 0
[17]; 63 g ai/ha
  phytotoxicity rating SORHA: 0
[17]; 250 g ai/ha
  phytotoxicity rating SORHA: 0
[18]; 63 g ai/ha
  phytotoxicity rating ECHCO: 0
[18]; 250 g ai/ha
  phytotoxicity rating ECHCO: 0
[19]; 63 g ai/ha
  phytotoxicity rating DIGSA: 0
[19]; 250 g ai/ha
  phytotoxicity rating DIGSA: 0
[20]; 63 g ai/ha
  phytotoxicity rating XANST: 70
[20]; 250 g ai/ha
  phytotoxicity rating XANST: 70
[21]; 63 g ai/ha
  phytotoxicity rating IPOHE: 100
[21]; 250 g ai/ha
  phytotoxicity rating IPOHE: 100
[22]; 63 g ai/ha
  phytotoxicity rating CHEAL: 0
[22]; 250 g ai/ha
  phytotoxicity rating CHEAL: 70
[23]; 63 g ai/ha
  phytotoxicity rating ABUTH: 0
[23]; 250 g ai/ha
  phytotoxicity rating ABUTH: 35
[24]; 63 g ai/ha
  phytotoxicity rating CASOB: 0
[24]; 250 g ai/ha
  phytotoxicity rating CASOB: 0
[25]; [27]
  phytotoxicity rating AMARE: 0
[25]; 250 g ai/ha, scale 0-100
  phytotoxicity rating AMARE: 30
[26]; 63 g ai/ha
  phytotoxicity rating AMBEL: 0
[26]; 250 g ai/ha
  phytotoxicity rating AMBEL: 50

## CC(=O)OC(=NN1C(C)CCCC1C)c1cc(-n2c(=O)cc(C(F)(F)F)n(C)c2=O)c(F)cc1Cl (centres unmarked) [Compound 4-9]
[1]; 63 g ai/ha
  crop damage rating CORN: 0
[1]; 250 g ai/ha
  crop damage rating CORN: 50
[2]; 63 g ai/ha
  crop damage rating RICE: 0
[2]; 250 g ai/ha
  crop damage rating RICE: 0
[3]; 63 g ai/ha
  phytotoxicity rating SETVI: 100
[3]; 250 g ai/ha
  phytotoxicity rating SETVI: 100
[4]; 63 g ai/ha
  phytotoxicity rating SORHA: 65
[4]; 250 g ai/ha
  phytotoxicity rating SORHA: 100
[5]; 63 g ai/ha
  phytotoxicity rating ECHCG: 55
[5]; 250 g ai/ha
  phytotoxicity rating ECHCG: 99
[6]; 63 g ai/ha
  phytotoxicity rating DIGSA: 99
[6]; 250 g ai/ha
  phytotoxicity rating DIGSA: 100
[7]; 63 g ai/ha
  phytotoxicity rating XANST: 35
[7]; 250 g ai/ha
  phytotoxicity rating XANST: 100
[8]; 63 g ai/ha
  phytotoxicity rating IPOHE: 100
[8]; 250 g ai/ha
  phytotoxicity rating IPOHE: 100
[9]; 63 g ai/ha
  phytotoxicity rating CHEAL: 100
[9]; 250 g ai/ha
  phytotoxicity rating CHEAL: 100
[10]; 63 g ai/ha
  phytotoxicity rating ABUTH: 100
[10]; 250 g ai/ha
  phytotoxicity rating ABUTH: 100
[11]; 63 g ai/ha
  phytotoxicity rating CASOB: 80
[11]; 250 g ai/ha
  phytotoxicity rating CASOB: 100
[12]; 63 g ai/ha
  phytotoxicity rating AMARE: 100
[12]; 250 g ai/ha
  phytotoxicity rating AMARE: 100
[13]; 63 g ai/ha
  phytotoxicity rating AMBEL: 90
[13]; 250 g ai/ha
  phytotoxicity rating AMBEL: 100
[14]; 63 g ai/ha
  crop damage rating CORN: 30
[14]; 250 g ai/ha
  crop damage rating CORN: 95
[15]; 63 g ai/ha
  crop damage rating RICE: 10
[15]; 250 g ai/ha
  crop damage rating RICE: 15
[16]; 63 g ai/ha
  phytotoxicity rating SETVI: 65
[16]; 250 g ai/ha
  phytotoxicity rating SETVI: 100
[17]; 63 g ai/ha
  phytotoxicity rating SORHA: 0
[17]; 250 g ai/ha
  phytotoxicity rating SORHA: 80
[18]; 63 g ai/ha
  phytotoxicity rating ECHCO: 0
[18]; 250 g ai/ha
  phytotoxicity rating ECHCO: 15
[19]; 63 g ai/ha
  phytotoxicity rating DIGSA: 50
[19]; 250 g ai/ha
  phytotoxicity rating DIGSA: 99
[20]; 63 g ai/ha
  phytotoxicity rating XANST: 30
[20]; 250 g ai/ha
  phytotoxicity rating XANST: 60
[21]; 63 g ai/ha
  phytotoxicity rating IPOHE: 95
[21]; 250 g ai/ha
  phytotoxicity rating IPOHE: 100
[22]; 63 g ai/ha
  phytotoxicity rating CHEAL: 100
[22]; 250 g ai/ha
  phytotoxicity rating CHEAL: 100
[23]; 63 g ai/ha
  phytotoxicity rating ABUTH: 100
[23]; 250 g ai/ha
  phytotoxicity rating ABUTH: 100
[24]; 63 g ai/ha
  phytotoxicity rating CASOB: 60
[24]; 250 g ai/ha
  phytotoxicity rating CASOB: 90
[25]; [27]
  phytotoxicity rating AMARE: 100
[25]; 250 g ai/ha, scale 0-100
  phytotoxicity rating AMARE: 100
[26]; 63 g ai/ha
  phytotoxicity rating AMBEL: 60
[26]; 250 g ai/ha
  phytotoxicity rating AMBEL: 99
